Assay results taken from ChEMBL document CHEMBL1201862, “PubChem BioAssay data set” (2004).
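Step 1: Grow cells in 96-well plates. Step 2: Expose to compound for 48 hours at 5 concentrations. Step 3: Interpolate endpoints linearly; if unreached, use highest concentration. GI50 marks 50% less growth.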 The source made the active and inactive calls. No stated cut-off is given here; in the data, active = GI50 up to about 1.1 µM and inactive = higher.

Assays:
Test in all cases: growth of human tumour cells (NCI), 48 h
M14 = test system: M14
SN12C = test system: SN12C
IGROV-1 = test system: IGROV-1
HCT-15 = test system: HCT-15
HOP-62 = test system: HOP-62
LOX IMVI = test system: LOX IMVI
KM-20L2 = test system: KM-20L2
SF-539 = test system: SF-539
SK-MEL-5 = test system: SK-MEL-5
RXF 631 = test system: RXF 631
Malme-3M = test system: Malme-3M
OVCAR-5 = test system: OVCAR-5
DMS-273 = test system: DMS-273
EKVX = test system: EKVX
HCT-116 = test system: HCT-116
SNB-75 = test system: SNB-75
DLD-1 = test system: DLD-1
UO-31 = test system: UO-31
NCI-H460 = test system: NCI-H460
M19-MEL = test system: M19-MEL
UACC-62 = test system: UACC-62
SK-OV-3 = test system: SK-OV-3
786-0 = test system: 786-0
HT-29 = test system: HT-29
U-251 = test system: U-251
NCI-H226 = test system: NCI-H226
K562 = test system: K562
CCRF-CEM = test system: CCRF-CEM
SNB-19 = test system: SNB-19
CAKI-1 = test system: CAKI-1
KM12 = test system: KM12
COLO 205 = test system: COLO 205
LXFL 529 = test system: LXFL 529
NCI-H23 = test system: NCI-H23
SK-MEL-2 = test system: SK-MEL-2
NCI-H522 = test system: NCI-H522
SR = test system: SR
HL-60 = test system: HL-60
ACHN = test system: ACHN
XF498 = test system: XF498
TK-10 = test system: TK-10
MOLT-4 = test system: MOLT-4
SF-295 = test system: SF-295
SNB-78 = test system: SNB-78
A549 = test system: A549
OVCAR-4 = test system: OVCAR-4
UACC-257 = test system: UACC-257
SW-620 = test system: SW-620
OVCAR-3 = test system: OVCAR-3
HCC 2998 = test system: HCC 2998
OVCAR-8 = test system: OVCAR-8
HOP-18 = test system: HOP-18
RXF 393 = test system: RXF 393
RPMI-8226 = test system: RPMI-8226
A498 = test system: A498
SF-268 = test system: SF-268
DMS-114 = test system: DMS-114
SK-MEL-28 = test system: SK-MEL-28
HOP-92 = test system: HOP-92

Measured: GI50

CC(=O)c1ccccc1NC(=O)C(=O)C(C(=O)c1ccccc1-c1ccccc1)C1OC(=O)c2ccccc21 (stereo not given)
inactive: M14 18.2 µM | SN12C 17.1 µM | IGROV-1 22.2 µM | HOP-62 20.1 µM | LOX IMVI 18.7 µM | KM-20L2 26.6 µM | SF-539 17.8 µM | SK-MEL-5 19.1 µM | RXF 631 50.6 µM | Malme-3M 15.5 µM | OVCAR-5 29.2 µM | DMS-273 31.9 µM | EKVX 29.7 µM | HCT-116 17.8 µM | SNB-75 25.5 µM | DLD-1 23.1 µM | UO-31 18.2 µM | NCI-H460 19.1 µM | M19-MEL 17.2 µM | UACC-62 20.7 µM | SK-OV-3 31.8 µM | 786-0 18.6 µM | HT-29 26.9 µM | U-251 16 µM | NCI-H226 14.9 µM | K562 25.3 µM | CCRF-CEM 25.1 µM | SNB-19 22.1 µM | CAKI-1 37.8 µM | KM12 18 µM | COLO 205 23.2 µM | LXFL 529 15.5 µM | NCI-H23 16.5 µM | SK-MEL-2 17.2 µM | NCI-H522 14.7 µM | SR 21.6 µM | HL-60 23.9 µM | ACHN 22.5 µM | XF498 11.3 µM | TK-10 14.9 µM | MOLT-4 24.8 µM | SF-295 22.2 µM | SNB-78 30.4 µM | A549 25.5 µM | OVCAR-4 33.7 µM | UACC-257 15.7 µM | SW-620 34.3 µM | OVCAR-3 20.7 µM | HCC 2998 16.2 µM | OVCAR-8 19.1 µM | HOP-18 15.2 µM | RXF 393 11.5 µM | RPMI-8226 27.3 µM | A498 20.5 µM
19.7 µM: HCT-15

CN1CCCN2CCN(C)CCCN(CC1)CC2
inactive: M14 > 100 µM | SN12C > 100 µM | IGROV-1 > 100 µM | HOP-62 > 100 µM | LOX IMVI > 100 µM | SF-539 > 100 µM | RXF 631 > 100 µM | Malme-3M > 100 µM | DMS-273 > 100 µM | SF-268 > 100 µM | HCT-116 > 100 µM | SNB-75 > 100 µM | DLD-1 > 100 µM | UO-31 > 100 µM | NCI-H460 > 100 µM | M19-MEL > 100 µM | UACC-62 > 100 µM | SK-OV-3 > 100 µM | 786-0 > 100 µM | DMS-114 > 100 µM | SK-MEL-28 > 100 µM | HOP-92 > 100 µM | NCI-H226 > 100 µM | K562 > 100 µM | CCRF-CEM > 100 µM | CAKI-1 > 100 µM | COLO 205 > 100 µM | LXFL 529 > 100 µM | NCI-H23 > 100 µM | SK-MEL-2 > 100 µM | NCI-H522 > 100 µM | SR > 100 µM | HL-60 > 100 µM | XF498 > 100 µM | MOLT-4 > 100 µM | SNB-78 > 100 µM | OVCAR-4 > 100 µM | HCC 2998 > 100 µM | RPMI-8226 > 100 µM | A498 > 100 µM

Clc1ccc2[nH]c(CCSCCc3nc4ccc(Cl)cc4[nH]3)nc2c1
active: SR 0.181 µM | HL-60 0.491 µM
13.2 µM: HCT-15
inactive: M14 13 µM | SN12C 14.4 µM | IGROV-1 10.2 µM | HOP-62 15.2 µM | LOX IMVI 12.8 µM | SF-539 16.5 µM | SK-MEL-5 5.87 µM | RXF 631 6.89 µM | OVCAR-5 12.4 µM | DMS-273 13.4 µM | EKVX 16.9 µM | HCT-116 6.21 µM | SNB-75 19.5 µM | DLD-1 15.4 µM | UO-31 11.4 µM | NCI-H460 15.1 µM | M19-MEL 14.4 µM | UACC-62 5.64 µM | SK-OV-3 18.1 µM | 786-0 13.5 µM | HT-29 11.6 µM | HOP-92 12.7 µM | U-251 13.4 µM | NCI-H226 13.4 µM | K562 16.8 µM | CCRF-CEM 10.8 µM | CAKI-1 4.55 µM | KM12 15.2 µM | COLO 205 15.4 µM | LXFL 529 6.18 µM | NCI-H23 13.6 µM | SK-MEL-2 15.3 µM | NCI-H522 12.2 µM | ACHN 2.25 µM | XF498 14.2 µM | TK-10 10.3 µM | MOLT-4 3.7 µM | SF-295 7.62 µM | A549 10 µM | OVCAR-4 14.2 µM | UACC-257 12.7 µM | SW-620 14 µM | HCC 2998 15.1 µM | OVCAR-8 14.2 µM | HOP-18 22.3 µM | RXF 393 17.5 µM | RPMI-8226 2.34 µM
